Measured values reported in the kinase profiling compilation of Christmann-Franck et al. (2016).

How the values were obtained:
Assay in all cases: KINOMEscan competition binding
Settings in all cases: compound 1.0 µM
PIM2 (human) = PIM2 (human) (UniProt Q9P1W9)
MST4 (human) = MST4 (human) (UniProt Q9P289)
IKBKE (human) = IKBKE (human) (UniProt Q14164)
MAPK6 (human) = MAPK6 (human) (UniProt Q16659)
ROCK2 (human) = ROCK2 (human) (UniProt O75116)
MET (human) = MET (human) (UniProt P08581)
DYRK1B (human) = DYRK1B (human) (UniProt Q9Y463)
ACVRL1 (human) = ACVRL1 (human) (UniProt P37023)
PRKAA1 (human) = PRKAA1 (human) (UniProt Q13131)
PLK2 (human) = PLK2 (human) (UniProt Q9NYY3)
NUAK1 (human) = NUAK1 (human) (UniProt O60285)
SLK (human) = SLK (human) (UniProt Q9H2G2)
BMP2K (human) = BMP2K (human) (UniProt Q9NSY1)
CSNK1G3 (human) = CSNK1G3 (human) (UniProt Q9Y6M4)
CDK3 (human) = CDK3 (human) (UniProt Q00526)
WEE2 (human) = WEE2 (human) (UniProt P0C1S8)
PRKACB (human) = PRKACB (human) (UniProt P22694)
KIT (human) = KIT (human) (UniProt P10721)
[1] = system: KIT (human), P10721 [L576P]
IGF1R (human) = IGF1R (human) (UniProt P08069)
MKNK1 (human) = MKNK1 (human) (UniProt Q9BUB5)
BRSK1 (human) = BRSK1 (human) (UniProt Q8TDC3)
NTRK3 (human) = NTRK3 (human) (UniProt Q16288)
STK32B (human) = STK32B (human) (UniProt Q9NY57)
STK3 (human) = STK3 (human) (UniProt Q13188)
ZAP70 (human) = ZAP70 (human) (UniProt P43403)
EPHA3 (human) = EPHA3 (human) (UniProt P29320)
DCLK3 (human) = DCLK3 (human) (UniProt Q9C098)
NUAK2 (human) = NUAK2 (human) (UniProt Q9H093)
CHUK (human) = CHUK (human) (UniProt O15111)
[2] = system: ABL1 (human), P00519 [F317I]
FES (human) = FES (human) (UniProt P07332)
PIM3 (human) = PIM3 (human) (UniProt Q86V86)
DYRK2 (human) = DYRK2 (human) (UniProt Q92630)
STK32C (human) = STK32C (human) (UniProt Q86UX6)
EPHA4 (human) = EPHA4 (human) (UniProt P54764)
STK38L (human) = STK38L (human) (UniProt Q9Y2H1)
CDK9 (human) = CDK9 (human) (UniProt P50750)
ROS1 (human) = ROS1 (human) (UniProt P08922)
BMPR2 (human) = BMPR2 (human) (UniProt Q13873)
CDK5 (human) = CDK5 (human) (UniProt Q00535)

Chain of DYRK1B (human) (Q9Y463 whole entry, looked up): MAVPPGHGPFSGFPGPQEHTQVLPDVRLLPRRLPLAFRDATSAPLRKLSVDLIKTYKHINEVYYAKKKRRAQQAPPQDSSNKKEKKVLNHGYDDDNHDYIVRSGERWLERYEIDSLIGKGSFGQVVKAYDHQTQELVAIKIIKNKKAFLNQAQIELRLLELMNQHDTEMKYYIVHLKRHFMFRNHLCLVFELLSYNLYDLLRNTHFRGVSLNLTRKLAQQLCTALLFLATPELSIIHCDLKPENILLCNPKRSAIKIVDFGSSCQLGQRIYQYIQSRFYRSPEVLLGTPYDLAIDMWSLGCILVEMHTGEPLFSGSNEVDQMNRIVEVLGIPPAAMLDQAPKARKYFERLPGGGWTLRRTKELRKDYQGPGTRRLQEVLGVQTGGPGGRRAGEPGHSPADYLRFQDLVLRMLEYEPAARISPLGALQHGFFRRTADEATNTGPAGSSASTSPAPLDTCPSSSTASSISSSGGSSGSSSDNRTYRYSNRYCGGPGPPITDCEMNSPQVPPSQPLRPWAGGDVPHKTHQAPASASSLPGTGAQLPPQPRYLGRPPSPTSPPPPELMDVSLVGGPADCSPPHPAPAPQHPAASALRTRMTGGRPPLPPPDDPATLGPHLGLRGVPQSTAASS
Chain of NTRK3 (human) (Q16288 whole entry, looked up): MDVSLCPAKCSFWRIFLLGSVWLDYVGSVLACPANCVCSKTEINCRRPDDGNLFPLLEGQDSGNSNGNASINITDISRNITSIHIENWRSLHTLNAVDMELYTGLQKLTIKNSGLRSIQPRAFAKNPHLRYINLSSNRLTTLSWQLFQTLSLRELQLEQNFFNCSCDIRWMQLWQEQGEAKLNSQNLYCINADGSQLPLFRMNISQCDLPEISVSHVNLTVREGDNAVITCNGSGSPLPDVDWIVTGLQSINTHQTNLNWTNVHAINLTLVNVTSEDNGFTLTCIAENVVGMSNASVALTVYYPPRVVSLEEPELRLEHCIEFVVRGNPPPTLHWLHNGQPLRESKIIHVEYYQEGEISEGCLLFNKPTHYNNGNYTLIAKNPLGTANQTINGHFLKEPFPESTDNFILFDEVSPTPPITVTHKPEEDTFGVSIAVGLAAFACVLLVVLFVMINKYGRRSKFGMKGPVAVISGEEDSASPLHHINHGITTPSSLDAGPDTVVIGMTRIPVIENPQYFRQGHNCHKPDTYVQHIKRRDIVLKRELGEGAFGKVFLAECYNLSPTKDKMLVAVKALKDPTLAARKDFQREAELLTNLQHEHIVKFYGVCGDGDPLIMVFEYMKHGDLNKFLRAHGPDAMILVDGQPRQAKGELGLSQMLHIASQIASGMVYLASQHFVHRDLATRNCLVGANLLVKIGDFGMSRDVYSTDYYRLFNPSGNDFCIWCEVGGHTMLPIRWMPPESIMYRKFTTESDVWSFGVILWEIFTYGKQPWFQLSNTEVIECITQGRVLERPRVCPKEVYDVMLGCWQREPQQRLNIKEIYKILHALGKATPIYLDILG
Chain of ABL1 (human), P00519 [F317I] (P00519 whole entry F317I, looked up): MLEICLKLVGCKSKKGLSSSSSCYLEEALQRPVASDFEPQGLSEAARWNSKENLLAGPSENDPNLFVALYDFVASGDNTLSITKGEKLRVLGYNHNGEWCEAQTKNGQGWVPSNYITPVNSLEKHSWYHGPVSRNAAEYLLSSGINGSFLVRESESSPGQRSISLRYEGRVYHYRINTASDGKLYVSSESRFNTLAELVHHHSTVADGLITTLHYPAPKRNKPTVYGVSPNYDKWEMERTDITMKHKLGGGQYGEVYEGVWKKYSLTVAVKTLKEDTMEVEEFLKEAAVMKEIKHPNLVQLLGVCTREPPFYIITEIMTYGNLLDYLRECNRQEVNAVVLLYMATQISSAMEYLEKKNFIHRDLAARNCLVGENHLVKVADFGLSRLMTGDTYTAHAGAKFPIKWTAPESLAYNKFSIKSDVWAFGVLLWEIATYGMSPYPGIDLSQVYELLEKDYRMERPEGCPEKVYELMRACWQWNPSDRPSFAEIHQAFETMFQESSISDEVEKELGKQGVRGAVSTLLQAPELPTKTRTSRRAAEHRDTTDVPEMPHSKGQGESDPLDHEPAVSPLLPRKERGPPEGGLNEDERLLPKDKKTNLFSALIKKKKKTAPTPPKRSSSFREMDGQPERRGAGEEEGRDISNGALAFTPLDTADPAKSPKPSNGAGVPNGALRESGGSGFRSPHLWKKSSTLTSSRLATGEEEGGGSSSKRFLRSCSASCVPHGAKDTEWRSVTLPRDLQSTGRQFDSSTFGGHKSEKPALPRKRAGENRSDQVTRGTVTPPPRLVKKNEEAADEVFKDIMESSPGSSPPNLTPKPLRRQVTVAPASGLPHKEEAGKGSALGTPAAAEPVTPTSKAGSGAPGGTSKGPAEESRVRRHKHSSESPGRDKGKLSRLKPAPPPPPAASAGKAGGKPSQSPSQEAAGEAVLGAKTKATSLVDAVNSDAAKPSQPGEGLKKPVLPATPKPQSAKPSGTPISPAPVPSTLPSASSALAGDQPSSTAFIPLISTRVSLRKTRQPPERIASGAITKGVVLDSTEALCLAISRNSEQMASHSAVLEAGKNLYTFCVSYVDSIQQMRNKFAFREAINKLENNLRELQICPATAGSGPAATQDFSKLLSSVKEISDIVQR
Chain of DYRK2 (human) (Q92630 whole entry, looked up): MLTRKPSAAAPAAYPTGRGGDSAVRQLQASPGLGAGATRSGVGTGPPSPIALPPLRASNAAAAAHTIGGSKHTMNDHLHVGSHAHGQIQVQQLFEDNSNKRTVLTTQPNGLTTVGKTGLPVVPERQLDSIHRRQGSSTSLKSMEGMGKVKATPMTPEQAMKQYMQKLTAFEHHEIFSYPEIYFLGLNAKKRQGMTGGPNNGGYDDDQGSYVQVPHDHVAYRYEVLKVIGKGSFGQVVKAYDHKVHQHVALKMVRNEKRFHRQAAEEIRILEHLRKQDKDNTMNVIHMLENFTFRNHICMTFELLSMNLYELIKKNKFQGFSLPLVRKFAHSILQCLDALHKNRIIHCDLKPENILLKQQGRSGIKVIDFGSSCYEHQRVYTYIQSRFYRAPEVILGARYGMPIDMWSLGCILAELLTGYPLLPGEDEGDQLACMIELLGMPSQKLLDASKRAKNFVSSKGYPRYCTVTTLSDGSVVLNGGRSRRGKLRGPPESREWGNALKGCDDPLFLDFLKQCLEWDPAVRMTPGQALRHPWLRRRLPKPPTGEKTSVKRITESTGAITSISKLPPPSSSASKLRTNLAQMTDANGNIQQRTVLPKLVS
Chain of KIT (human) (P10721 whole entry, looked up): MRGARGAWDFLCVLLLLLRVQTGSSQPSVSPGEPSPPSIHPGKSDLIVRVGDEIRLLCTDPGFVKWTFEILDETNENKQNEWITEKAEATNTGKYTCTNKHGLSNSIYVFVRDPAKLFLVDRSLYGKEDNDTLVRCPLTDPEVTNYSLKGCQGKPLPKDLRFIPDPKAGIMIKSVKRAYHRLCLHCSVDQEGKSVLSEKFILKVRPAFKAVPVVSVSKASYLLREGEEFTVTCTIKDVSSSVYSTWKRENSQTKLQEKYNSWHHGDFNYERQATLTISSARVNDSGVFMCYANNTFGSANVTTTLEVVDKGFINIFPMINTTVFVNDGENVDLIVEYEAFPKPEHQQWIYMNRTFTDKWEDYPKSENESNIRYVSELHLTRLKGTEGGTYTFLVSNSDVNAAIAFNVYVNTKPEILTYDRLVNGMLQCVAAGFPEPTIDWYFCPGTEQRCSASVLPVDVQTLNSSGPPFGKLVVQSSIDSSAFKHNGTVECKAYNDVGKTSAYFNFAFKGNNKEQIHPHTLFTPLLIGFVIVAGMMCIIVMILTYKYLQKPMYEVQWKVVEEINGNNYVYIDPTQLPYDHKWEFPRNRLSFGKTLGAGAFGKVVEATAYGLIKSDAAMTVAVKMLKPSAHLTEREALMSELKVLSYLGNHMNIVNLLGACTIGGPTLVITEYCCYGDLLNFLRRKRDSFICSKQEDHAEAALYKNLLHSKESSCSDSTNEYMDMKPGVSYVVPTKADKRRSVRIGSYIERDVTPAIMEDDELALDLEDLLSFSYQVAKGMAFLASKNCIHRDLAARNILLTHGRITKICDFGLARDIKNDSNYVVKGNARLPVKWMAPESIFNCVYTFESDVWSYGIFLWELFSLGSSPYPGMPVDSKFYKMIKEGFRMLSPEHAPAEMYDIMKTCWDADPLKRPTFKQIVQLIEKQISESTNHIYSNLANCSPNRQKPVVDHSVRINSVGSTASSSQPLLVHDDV
Chain of CSNK1G3 (human) (Q9Y6M4 whole entry, looked up): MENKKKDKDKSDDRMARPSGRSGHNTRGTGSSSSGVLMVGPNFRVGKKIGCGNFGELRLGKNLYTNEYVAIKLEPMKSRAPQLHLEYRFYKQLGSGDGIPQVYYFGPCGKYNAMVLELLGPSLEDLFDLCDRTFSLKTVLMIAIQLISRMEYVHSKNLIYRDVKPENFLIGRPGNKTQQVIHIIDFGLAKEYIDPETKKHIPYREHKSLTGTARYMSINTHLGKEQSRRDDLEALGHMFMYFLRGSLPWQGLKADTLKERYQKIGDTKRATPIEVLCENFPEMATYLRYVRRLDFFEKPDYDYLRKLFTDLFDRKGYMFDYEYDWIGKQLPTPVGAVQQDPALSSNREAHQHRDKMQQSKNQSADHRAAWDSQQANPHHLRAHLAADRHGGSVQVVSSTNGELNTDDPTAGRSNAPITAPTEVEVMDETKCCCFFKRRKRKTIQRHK
Chain of KIT (human), P10721 [L576P] (P10721 whole entry L576P, looked up): as the sequence (P10721 whole entry, looked up) above, with L576P counted along it

Nc1cc(C(F)(F)F)c(-c2cc(N3CCOCC3)nc(N3CCOCC3)n2)cn1
inhibition of binding (PIM2 (human)): 0% | inhibition of binding (MST4 (human)): 0% | inhibition of binding (IKBKE (human)): 0% | inhibition of binding (MAPK6 (human)): 0% | inhibition of binding (ROCK2 (human)): 0% | inhibition of binding (MET (human)): 12% | inhibition of binding (DYRK1B (human)): 0% | inhibition of binding (ACVRL1 (human)): 38% | inhibition of binding (PRKAA1 (human)): 3% | inhibition of binding (PLK2 (human)): 0% | inhibition of binding (NUAK1 (human)): 42% | inhibition of binding (SLK (human)): 0% | inhibition of binding (BMP2K (human)): 0% | inhibition of binding (CSNK1G3 (human)): 20% | inhibition of binding (CDK3 (human)): 0% | inhibition of binding (WEE2 (human)): 0% | inhibition of binding (PRKACB (human)): 4% | inhibition of binding (KIT (human)): 0% | inhibition of binding [1]: 0% | inhibition of binding (IGF1R (human)): 0% | inhibition of binding (MKNK1 (human)): 0% | inhibition of binding (BRSK1 (human)): 0% | inhibition of binding (NTRK3 (human)): 0% | inhibition of binding (STK32B (human)): 11% | inhibition of binding (STK3 (human)): 0% | inhibition of binding (ZAP70 (human)): 4% | inhibition of binding (EPHA3 (human)): 0% | inhibition of binding (DCLK3 (human)): 51% | inhibition of binding (NUAK2 (human)): 0% | inhibition of binding (CHUK (human)): 29% | inhibition of binding [2]: 41% | inhibition of binding (FES (human)): 0% | inhibition of binding (PIM3 (human)): 5% | inhibition of binding (DYRK2 (human)): 20% | inhibition of binding (STK32C (human)): 0% | inhibition of binding (EPHA4 (human)): 2% | inhibition of binding (STK38L (human)): 3% | inhibition of binding (CDK9 (human)): 12% | inhibition of binding (ROS1 (human)): 0% | inhibition of binding (BMPR2 (human)): 0% | inhibition of binding (CDK5 (human)): 0%
